Source: patent US10947188B2, “Small molecule ferroptosis inducers” (THE TRUSTEES OF COLUMBIA UNIVERSITY IN THE CITY OF NEW YORK, priority 2016, dated 2021)
Where a SMILES comes first, the peptide text is derived from it. The star is where a group is joined. Cbz = O=C(OCc1ccccc1)*

Assays:
[1] = tested on: GPX4; assay: Western blotting of GPX4 protein abundance; type: cell-based, human; conditions: for effect on FIN56-induced decrease of GPX4 protein abundance: 5 μM FIN56
Experimental: Seeded 300,000 cells (HT-1080 or BJeLR) per well in six-well plates. For cotreatment, ferroptosis inducers (10 μM erastin for 11 h, 0.5 μM (1S, 3R)-RSL3 for 2 h, or 5 μM FIN56) and 100 μM α-tocopherol were added to cell culture at the same time, and cells were then incubated for 10 h (FIG. 2E). When other death-modulating compounds (100 nM sodium selenite, 1 μM cerivastatin, 100 μg/mL mevalonic acid, 30 μM C75, or 2 μM cerulenin) were used in cotreatments, cells were pre-incubated with the modulators for 24 h before being treated with ferroptosis inducers for 6 h. Cell lysis, SDS-PAGE and protein transfer to PVDF membrane were performed as previously described (Dixon et al. 2012). We used the following antibodies: anti-human α-tubulin (Santa Cruz Biotechnology, sc-32293, 1:10,000 dilution), anti-human GPX4 (Abcam, ab41787, 1:2,000 dilution), anti-human GPX1 (R&D Systems, AF3798, 1:1,000 dilution), and anti-human SQS (Abcam, ab109723 for full-length, ab195046 for truncated, both at 1:1,000 dilution). Secondary antibodies were from LI-COR (1:3,000 dilution). The PVDF membranes labeled with primary and secondary antibodies were scanned using an Odyssey Imaging System (LI-COR). Experiments were performed in biological triplicates, and the mean±s.e. of intensity was plotted.

[2] = tested on: HT-1080 cells; assay: Cell viability assay (Alamar Blue), lethal compounds with or without modulators; type: cell-based; conditions: for effect on FIN56 lethality: modulator cotreatment or pretreatment
Experimental: 1,000 cells per 36 μl were seeded in each well in 384-well plates. Lethal compounds were dissolved, and a twofold, 12-point dilution series was prepared in DMSO. Compound solutions were further diluted with media at 1:25, and 4 μl per well of the diluted solutions was added to cell cultures immediately after cells were seeded. […] When other cell-death-modulating compounds (100 nM sodium selenite, 1 μM cerivastatin, 100 μg/mL mevalonic acid) were used in cotreatments, they were supplemented to cell culture for 24 h before lethal compounds were added to cell culture, after which cells were further incubated for 24 h at 37° C. under 5% CO2. On the day of the viability measurement, we added 10 μl per well of 50% Alamar Blue diluted in media (Life Technologies) and further incubated the cells at 37° C. for 6 h. Fluorescence intensity (excitation/emission: 530/590) was measured with a Victor 3 plate reader (PerkinElmer), and the normalized viability was calculated as VL=(IL−I0)/(IV−I0), where VL, I0, IV, and IL are the normalized viability and the raw fluorescence intensities from the wells containing media, cells treated with a vehicle (negative control), and cells with the lethal compound (L), respectively. When the effect of a chemical modulator (M) on L was calculated, we instead used the equation VL|M=(IM,L−I0)/(IM,V−I0), where VL|M, IM,L and IM,V are the normalized viability, and fluorescence intensity from cells treated with […], respectively. The viability was typically measured in biological triplicate unless otherwise specified. A representative dose-response curve, the mean and standard error of normalized viability from one replicate were plotted. […]

[3] = tested on: BJeLR; assay: Modulatory profiling: Alamar Blue viability, lethal compound cotreated with death modulator (EC50, AUC); type: cell-based, human; design: AUC, modulator BJ.Gd3+ / AUC, modulator BJ.LNAME / AUC, modulator BJ.Lmin / AUC, modulator BJ.3MA / AUC, modulator BJ.ALLN / AUC, modulator BJ.Boc D / AUC, modulator BJ.CHX / AUC, modulator BJ.Co2+ / AUC, modulator BJ.Nec-1 / AUC, modulator BJ.Pepstatin / AUC, modulator BJ.TLCK / AUC, modulator BJ.atoc / AUC, modulator BJ.trolox / AUC, modulator BJ.zVAD: unit not given beside the values; conditions: BJeLR cells, modulatory profile value (AUC)
[4] = tested on: HT-1080; assay: as above; type: cell-based; design: AUC, modulator HT.3MA / AUC, modulator HT.ALLN / AUC HT.ATA / AUC HT.ActD / AUC HT.BHA / AUC HT.BHT / AUC HT.BocD / AUC HT.CHX / AUC HT.Co2+ / AUC HT.DPQ / AUC HT.EGTA / AUC HT.Lmim / AUC HT.NAD+ / AUC HT.Nec-1 / AUC HT.SP600125 / AUC HT.TLCK / AUC HT.U0126: unit not given beside the values
[5] = tested on: HT-1080 cells; assay: Analysis of lipid ROS generation (C11-BODIPY 581/591 flow cytometry); type: cell-based
Experimental: Cells were treated with test compounds, trypsinized, pelleted, and washed once with PBS. For lipophilic or aqueous ROS detection, cells were re-suspended in Hanks' Balanced Salt Solution (HBSS; […] Cells were then pelleted, re-suspended in 500 μL HBSS, strained through a 40-μm cell strainer (BD Falcon), and analyzed using a BD Accuri C6 flow cytometer (BD Biosciences). Both dyes were measured in the FL1 channel. Experiments were done in biological triplicates.

COC(=O)c1ccc([C@H]2c3[nH]c4ccccc4c3C[C@H](C(=O)OC)N2C(=O)CCl)cc1 [(1S, 3R)-RSL3]
abundance of GPX4 protein ([1]; BJeLR, cotreatment with 100 μM α-tocopherol, 10 h, FIN56 5 μM): Neither erastin nor (1S, 3R)-RSL3 affected the abundance of GPX4 to the same extent as FIN56
suppression of lethality by mevalonate-pathway modulators (FPP, YM-53601, idebenone) and α-tocopherol ([2]; HT-1080 cells, modulatory profiling scheme): potently suppressed by all the compounds

CC(C)C[C@@H](C=O)NC(=O)[C@H](CC(C)C)NC(=O)[C@H](CC(C)C)NC(=O)OCc1ccccc1 [MG132, reference compound] (Cbz-Leu-Leu-Leu-aldehyde)
AUC, modulator BJ.3MA ([3]; lethal compound cotreated with modulator 3MA): −0.04346
AUC, modulator BJ.ALLN ([3]; lethal compound cotreated with modulator ALLN): −0.2701
AUC, modulator BJ.Boc D ([3]; lethal compound cotreated with modulator Boc D): 0.04216
AUC, modulator BJ.CHX ([3]; lethal compound cotreated with modulator CHX): 0.2476
AUC, modulator BJ.Co2+ ([3]; lethal compound cotreated with modulator Co2+): 0.1849
AUC, modulator BJ.DPQ ([3]; lethal compound cotreated with modulator DPQ): −0.01327
AUC, modulator BJ.Gd3+ ([3]; lethal compound cotreated with modulator Gd3+): 0.03163
AUC, modulator BJ.LNAME ([3]; lethal compound cotreated with modulator LNAME): 0.01789
AUC, modulator BJ.Lmin/NAD+ ([3]; lethal compound cotreated with modulator Lmin/NAD+): 0.2064
AUC, modulator BJ.Lmin ([3]; lethal compound cotreated with modulator Lmin): 0.1487
AUC, modulator BJ.NAD+ ([3]; lethal compound cotreated with modulator NAD+): 0.04274
AUC, modulator BJ.NMMA ([3]; lethal compound cotreated with modulator NMMA): 0.02073
AUC, modulator BJ.Nec-1 ([3]; lethal compound cotreated with modulator Nec-1): −0.0504
AUC, modulator BJ.Pepstatin ([3]; lethal compound cotreated with modulator Pepstatin): −0.02291
AUC, modulator BJ.TLCK ([3]; lethal compound cotreated with modulator TLCK): 0.1241
AUC, modulator BJ.atoc ([3]; lethal compound cotreated with modulator atoc): −0.002326
AUC, modulator BJ.trolox ([3]; lethal compound cotreated with modulator trolox): −0.01449
AUC, modulator BJ.zVAD ([3]; lethal compound cotreated with modulator zVAD): −0.08452
effect on FIN56-induced decrease of GPX4 protein abundance [1]: did not inhibit GPX4 degradation significantly
AUC HT.EGTA [4]: 0.007775
AUC HT.ATA ([4]; HT-1080, modulator ATA): 0.005768
AUC HT.ActD ([4]; HT-1080, modulator ActD): −0.06417
AUC HT.BHA ([4]; HT-1080, modulator BHA): −0.1238
AUC HT.BHT ([4]; HT-1080, modulator BHT): −0.1271
AUC HT.BocD ([4]; HT-1080, modulator BocD): 0.002051
AUC HT.CHX ([4]; HT-1080, modulator CHX): 0.04854
AUC HT.Co2+ ([4]; HT-1080, modulator Co2+): −0.05705
AUC HT.CspA ([4]; HT-1080, modulator CspA): −0.3221
AUC HT.DPQ ([4]; HT-1080, modulator DPQ): −0.02406
AUC HT.Gd3+ ([4]; HT-1080, modulator Gd3+): −0.011
AUC HT.LNAME ([4]; HT-1080, modulator LNAME): 5.1006E−05
AUC HT.Lmim ([4]; HT-1080, modulator Lmim): 0.001338
AUC HT.NAD+ ([4]; HT-1080, modulator NAD+): 0.03798
AUC HT.NMMA ([4]; HT-1080, modulator NMMA): 0.01064
AUC HT.Nec-1 ([4]; HT-1080, modulator Nec-1): −0.09728
AUC HT.Pepstatin ([4]; HT-1080, modulator Pepstatin): −0.02733
AUC HT.SP600125 ([4]; HT-1080, modulator SP600125): −0.03431
AUC HT.TLCK ([4]; HT-1080, modulator TLCK): 0.01546
AUC HT.U0126 ([4]; HT-1080, modulator U0126): −0.071
HT.atoc (AUC) ([4]; HT-1080, modulator atoc): 0.04884
HT.bCarotene (AUC) ([4]; HT-1080, modulator bCarotene): 7.0861E−05
HT.deferox (AUC) ([4]; HT-1080, modulator deferox): −0.1162
HT.digoxin (AUC) ([4]; HT-1080, modulator digoxin): 0.08352
HT.trolox (AUC) ([4]; HT-1080, modulator trolox): −0.01616
HT.zVAD (AUC) ([4]; HT-1080, modulator zVAD): −0.0992
AUC, modulator HT.3MA ([4]; HT-1080 cells, lethal compound cotreated with modulator 3MA, modulatory profile value (AUC)): −0.03392
AUC, modulator HT.ALLN ([4]; HT-1080 cells, lethal compound cotreated with modulator ALLN, modulatory profile value (AUC)): −0.2149

CCCCCCCCCCCCCCOc1ccc(C(=O)O)o1 [TOFA]
effect on lipid ROS generation after FIN56 treatment [5]: suppressed lipid ROS generation after FIN56 treatment
effect on FIN56-induced decrease of GPX4 protein abundance [1]: inhibited the loss of GPX4
effect on FIN56 lethality ([2]; HT-1080 cells): potent suppressor of FIN56

COC1=C(OC)C(=O)C(CCCCCCCCCCO)=C(C)C1=O [idebenone]
effect on lipid ROS generation after FIN56 treatment [5]: inhibited lipid ROS generation after FIN56 treatment
effect on FIN56-induced decrease of GPX4 protein abundance [1]: did not block the decrease in GPX4 protein abundance
effect on staurosporine-induced cell death [2]: enhanced it
effect on FIN56 lethality ([2]; HT-1080 cells): the only suppressor of FIN56-induced ferroptosis

Cc1c(C)c2c(c(C)c1O)CC[C@@](C)(CCC[C@H](C)CCC[C@H](C)CCCC(C)C)O2 [α-tocopherol]
effect on lipid ROS generation after FIN56 treatment [5]: inhibited lipid ROS generation after FIN56 treatment
effect on FIN56-induced decrease of GPX4 protein abundance [1]: not inhibited
effect on staurosporine-induced cell death [2]: suppressed staurosporine-induced cell death
